Measured values taken from patent US20120065126A1, “Pharmaceutical Compositions Containing Antifungal Peptides” (BASF SE, priority 2009, published 2012).

Legend:
[1] = Formulability of P18 in shampoo base formulations; assay type: physicochemical; details: 10 mM P18 in formulations 31-1 and 31-2, 5 mM in 31-3; pH 6-7
Description: The formulability of the peptide P18 was tested in three different shampoo base formulations. For this purpose, the formulations with the following compositions were first produced:
The components were mixed and dissolved. NaOH was used to adjust the pH to pH 6-7. Thereafter, two 100 mM solutions of peptide P18 (P18 sequence H-KWKLFKKIPKFLHLAKKF-NH2) were prepared. DMSO was the solvent for one solution; it was water for the other solution. The appropriate volume of the 100 mM P18 peptide solution was added to each of the formulations, such that the final concentration in formulations 31-1 and 31-2 was 10 mM, and the final concentration of peptide P18 in formulation 31-3 was 5 mM.

Malassezia furfur = experiment: Effect of P18 in the presence of nonionic and zwitterionic surfactants (CFU); assay type: cell-based; details: 24 hours
Description: The aim of the experiment was to study the effect of nonionic and zwitterionic surfactants on the activity of P18 peptide (P18 sequence […]). For this purpose, the following surfactants were used: Pluracare F 68 (a polyoxyethylene-polyoxypropylene-polyoxyethylene block copolymer) Plantacare 818 (a glucoside) Tego Betain L7 (cocamidopropyl betaine) The growth test was effected as follows: a shake culture containing […]. furfur and incubated with shaking at 30° C. and 200 rpm overnight. […] The concentrations of the detergent solutions were adjusted such that the final concentration of the particular detergent in the mixture was 2%; 4% or 6%. The concentrations of the P18 peptide solutions were adjusted such that the final concentration of the P18 peptide in the mixture was 0 μM; 50 μM; 100 μM; 250 μM; or 500 μM. The microtiter plate was incubated with shaking at 30° C. […] The CFU was determined in order to rule out any influence of the biphasic medium, and also the growth form of M. furfur, on the optical density. The experiments were each conducted in triplicate determination at least in two independent experiments.

H-KWKLFKKIPKFLHLAKKF-NH2 [P18, H-KWKLFKKIPKFLHLAKKF-NH2]
Appearance of the formulations with P18 [1]: clear and homogenous
Colony forming units (CFU) counted per μl (Malassezia furfur; Plantacare 818 2%, P18 50 μM): 6 CFU per μl
Colony forming units (CFU) counted per μl (Malassezia furfur; Plantacare 818 2%, P18 100 μM): 0 CFU per μl
Colony forming units (CFU) counted per μl (Malassezia furfur; Plantacare 818 2%, P18 250 μM): 0 CFU per μl
Colony forming units (CFU) counted per μl (Malassezia furfur; Plantacare 818 2%, P18 500 μM): 0 CFU per μl
Colony forming units (CFU) counted per μl (Malassezia furfur; Plantacare 818 4%, P18 50 μM): 39 CFU per μl
Colony forming units (CFU) counted per μl (Malassezia furfur; Plantacare 818 4%, P18 100 μM): 5 CFU per μl
Colony forming units (CFU) counted per μl (Malassezia furfur; Plantacare 818 4%, P18 250 μM): 0 CFU per μl
Colony forming units (CFU) counted per μl (Malassezia furfur; Plantacare 818 4%, P18 500 μM): 0 CFU per μl
Colony forming units (CFU) counted per μl (Malassezia furfur; Plantacare 818 6%, P18 50 μM): 106 CFU per μl
Colony forming units (CFU) counted per μl (Malassezia furfur; Plantacare 818 6%, P18 100 μM): 10 CFU per μl
Colony forming units (CFU) counted per μl (Malassezia furfur; Plantacare 818 6%, P18 250 μM): 0 CFU per μl
Colony forming units (CFU) counted per μl (Malassezia furfur; Plantacare 818 6%, P18 500 μM): 0 CFU per μl
Colony forming units (CFU) counted per μl (Malassezia furfur; Pluracare F68 2%, P18 50 μM): 4 CFU per μl
Colony forming units (CFU) counted per μl (Malassezia furfur; Pluracare F68 2%, P18 100 μM): 1 CFU per μl
Colony forming units (CFU) counted per μl (Malassezia furfur; Pluracare F68 2%, P18 250 μM): 0 CFU per μl
Colony forming units (CFU) counted per μl (Malassezia furfur; Pluracare F68 2%, P18 500 μM): 0 CFU per μl
Colony forming units (CFU) counted per μl (Malassezia furfur; Pluracare F68 4%, P18 50 μM): 2 CFU per μl
Colony forming units (CFU) counted per μl (Malassezia furfur; Pluracare F68 4%, P18 100 μM): 0 CFU per μl
Colony forming units (CFU) counted per μl (Malassezia furfur; Pluracare F68 4%, P18 250 μM): 0 CFU per μl
Colony forming units (CFU) counted per μl (Malassezia furfur; Pluracare F68 4%, P18 500 μM): 0 CFU per μl
Colony forming units (CFU) counted per μl (Malassezia furfur; Tego Betain L7 2%, P18 50 μM): 0 CFU per μl
Colony forming units (CFU) counted per μl (Malassezia furfur; Tego Betain L7 2%, P18 100 μM): 0 CFU per μl
Colony forming units (CFU) counted per μl (Malassezia furfur; Tego Betain L7 2%, P18 250 μM): 0 CFU per μl
Colony forming units (CFU) counted per μl (Malassezia furfur; Tego Betain L7 2%, P18 500 μM): 0 CFU per μl
Colony forming units (CFU) counted per μl (Malassezia furfur; Tego Betain L7 4%, P18 50 μM): 3 CFU per μl
Colony forming units (CFU) counted per μl (Malassezia furfur; Tego Betain L7 4%, P18 100 μM): 0 CFU per μl
Colony forming units (CFU) counted per μl (Malassezia furfur; Tego Betain L7 4%, P18 250 μM): 0 CFU per μl
Colony forming units (CFU) counted per μl (Malassezia furfur; Tego Betain L7 4%, P18 500 μM): 0 CFU per μl
Colony forming units (CFU) counted per μl (Malassezia furfur; Tego Betain L7 6%, P18 50 μM): 0 CFU per μl
Colony forming units (CFU) counted per μl (Malassezia furfur; Tego Betain L7 6%, P18 100 μM): 0 CFU per μl
Colony forming units (CFU) counted per μl (Malassezia furfur; Tego Betain L7 6%, P18 250 μM): 0 CFU per μl
Colony forming units (CFU) counted per μl (Malassezia furfur; Tego Betain L7 6%, P18 500 μM): 0 CFU per μl
